Data as given in PubChem BioAssay (NCI).
Where “and” joins values, the source holds several entries; their conditions need not be identical. Equal entries are not always repeated.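 Interpolation was linear, between the two tested concentrations surrounding the appropriate level; five concentrations were tested over 48 hours in 96-well plates. The concentration for 50% growth inhibition is given as GI50. TGI: concentration producing complete growth inhibition.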

Legend:
Test in all cases: NCI-60 cell line screen, 48 h
HOP-62 NSCLC = test system: HOP-62 NSCLC
RXF 393 renal = test system: RXF 393 renal
HCT-15 colon = test system: HCT-15 colon
ACHN renal = test system: ACHN renal
IGROV1 ovarian = test system: IGROV1 ovarian
CAKI-1 renal = test system: CAKI-1 renal
NCI-H226 lung = test system: NCI-H226 lung
U251 CNS = test system: U251 CNS
MOLT-4 leukemia = test system: MOLT-4 leukemia
CCRF-CEM leukemia = test system: CCRF-CEM leukemia

Structure (SMILES) | TGI (HOP-62 NSCLC) | TGI (RXF 393 renal) | TGI (HCT-15 colon) | TGI (ACHN renal) | TGI (IGROV1 ovarian) | TGI (CAKI-1 renal) | TGI (NCI-H226 lung) | TGI (U251 CNS) | TGI (MOLT-4 leukemia) | TGI (CCRF-CEM leukemia) | GI50 (HOP-62 NSCLC) | GI50 (RXF 393 renal) | GI50 (HCT-15 colon) | GI50 (ACHN renal) | GI50 (IGROV1 ovarian) | GI50 (CAKI-1 renal) | GI50 (NCI-H226 lung) | GI50 (U251 CNS) | GI50 (MOLT-4 leukemia) | GI50 (CCRF-CEM leukemia)
O=C(CC1=Nc2nnc(-c3nnc4n3C(=O)C(CC(=O)C3CC3)=N4)n2C1=O)C1CC1 | > 100 µM | > 100 µM | > 100 µM | > 100 µM | > 100 µM | > 100 µM | > 100 µM | > 100 µM | > 100 µM | > 100 µM | – | – | – | – | – | – | – | – | – | –
CNCc1ccc(-c2[nH]c3cc(F)cc4c3c2CCNC4=O)cc1 | 43.4 µM | 26.2 µM | > 100 µM | > 58.2 µM | > 72.2 µM | 60 µM | 43.4 µM | 57.7 µM | 68 µM | > 93 µM | 14.9 µM | 12.3 µM | 35.8 µM | 18.7 µM | 20.8 µM | 16.7 µM | 15.6 µM | 16 µM | 21.9 µM | 25.6 µM
C=C(Cl)[C@@](Cl)(CBr)CC[C@@H](Br)C(C)(C)Cl | 0.606 µM and 0.304 µM | 2.37 µM and 0.488 µM | 4.99 µM and 1.97 µM | 0.562 µM and 0.47 µM | 32.2 µM and 32.6 µM | 4.9 µM and 1.06 µM | 31 µM and 50.8 µM | – | 58.4 µM and 63.8 µM | > 100 µM and 53.6 µM | – | 0.346 µM | 0.866 µM | 0.184 µM | 14.7 µM | 1.22 µM | – | 0.971 µM | 17.5 µM | 20.3 µM
C=CCN=C(N/N=C/c1ccc([N+](=O)[O-])o1)NS(=O)(=O)c1cc(C(=O)Nc2ccccc2)c(Cl)cc1SCC(N)=O | > 100 µM | > 100 µM | > 100 µM | > 100 µM | 97.3 µM | > 100 µM | > 100 µM | 95.8 µM | 43.9 µM | 27.6 µM | 53.9 µM | 24.8 µM | > 100 µM | > 100 µM | 32.2 µM | > 100 µM | 30.8 µM | 22.9 µM | 13.4 µM | 5.73 µM
CN(C)c1ccc(C2CC(C)(O)Oc3cc4c(cc32)OCO4)cc1 (configuration not stated) | > 100 µM | > 100 µM | > 100 µM | > 100 µM | > 100 µM | > 100 µM | > 100 µM | > 100 µM | > 100 µM | > 100 µM | – | – | – | – | – | – | – | – | – | –
N/C(=N\C(N)=N\c1nc2ccccc2s1)c1cnccn1 | 16.1 µM | 3.96 µM | > 100 µM | 6.6 µM | – | 5.06 µM | 6.34 µM | 14.9 µM | > 100 µM | > 100 µM | 2.92 µM | 1.93 µM | 3.12 µM | 2.51 µM | – | 2.14 µM | 2.45 µM | 2.96 µM | 3.48 µM | 3.59 µM
Cc1nc2c(Br)cc(Br)cc2c(=O)n1-c1ccccc1NC1OCC(O)C(O)C1O (configuration not stated) | > 100 µM and 35.7 µM | > 100 µM and 49.2 µM | > 100 µM | > 100 µM and 51.8 µM | > 100 µM | > 100 µM | > 100 µM and 48.9 µM | > 100 µM | 61.1 µM and > 36.1 µM | 56.7 µM and > 56.5 µM | > 100 µM and 10.3 µM | 33.2 µM and 12.5 µM | – | – | – | – | 42.3 µM and 16.2 µM | 38.3 µM and 16.1 µM | 19.5 µM and 3.5 µM | –
CCCCC[C@@H](C/C=C/CCC(=O)NC/C(=C/Cl)[C@H]1C(=O)C(C)(C)C(=O)[C@@H](C)[C@@]1(C)O)OC | – | 34.2 µM | 32 µM | 32.6 µM | 31.3 µM | 34.1 µM | 36.1 µM | 37.1 µM | 59.3 µM | 15.7 µM | – | 17.4 µM | 17.1 µM | 18 µM | 16.4 µM | 18.2 µM | 18 µM | 20.1 µM | 21 µM | 3.27 µM
Nc1nc(=S)c2[nH]cnc2[nH]1 | > 31.8 µM and 29.6 µM and 94.9 µM | – | > 100 µM and 51.6 µM and 38.9 µM | 41.8 µM and 104 µM | > 96.1 µM and 150 µM and 162 µM | – | > 59.5 µM and 106 µM and 102 µM | > 100 µM and 241 µM and > 226 µM | – | – | 0.472 µM | 0.395 µM and 0.474 µM and 0.984 µM | 0.515 µM and 2.51 µM and 1.7 µM | 0.89 µM and 4.03 µM | 3.23 µM and 6.02 µM | 0.264 µM and 0.345 µM and 0.888 µM | 0.72 µM and 6.95 µM | 1.49 µM and 3.11 µM | 0.368 µM and 0.488 µM | 0.227 µM and 0.314 µM and 0.488 µM
C#Cc1cccc(NC(=O)C2CCCN(C(=O)CCl)C2)c1 (configuration not stated) | > 82.5 µM | > 82.5 µM | > 82.5 µM | 31.6 µM | 33.3 µM | > 82.5 µM | > 82.5 µM | > 82.5 µM | 75.1 µM | 64.4 µM | > 82.5 µM | > 82.5 µM | 28.3 µM | 16.1 µM | 14.3 µM | > 82.5 µM | > 82.5 µM | > 82.5 µM | 23.4 µM | 21.7 µM
COc1ccc(C(=O)O/N=C2/CCCCC2CN(C)C)cc1 (configuration not stated) | > 100 µM | > 100 µM | > 100 µM | > 100 µM | > 100 µM | > 100 µM | > 100 µM | > 100 µM | > 100 µM | > 100 µM | – | – | – | – | – | – | – | – | – | –
Cn1ccnc1C(=O)/C=C/c1ccc(C(=O)Nc2c(F)c(F)c(F)c(F)c2F)cc1 | 8.71 µM | 3.22 µM | 4.3 µM | 3.01 µM | 3.98 µM | 3.11 µM | 8.49 µM | 2.34 µM | 4.81 µM | 4.95 µM | 2.77 µM | 1.66 µM | 1.11 µM | 1.65 µM | 1.75 µM | 1.53 µM | 2.7 µM | 1.09 µM | 1.91 µM | 1.68 µM
Cc1ccc(C2=C(Cl)C(=O)C(c3ccc(C)cc3)=C(Cl)C2=O)cc1 | > 100 µM | > 100 µM | > 100 µM | > 100 µM | > 100 µM | > 100 µM | > 100 µM | > 100 µM | > 100 µM | > 100 µM | – | – | – | – | – | – | – | – | – | –
COc1cc2cc3c(c(O)c2c(O)c1-c1c(OC)cc2cc4c(c(O)c2c1O)C(=O)O[C@H](C)C4)C(=O)O[C@H](C)C3 | 62.7 µM | > 100 µM | 82.1 µM | 66.7 µM | – | 61.2 µM | > 100 µM | 48.1 µM | > 100 µM | 67.7 µM | 26.9 µM | 24.4 µM | 25.6 µM | 24.7 µM | – | 23.9 µM | 32.7 µM | 19.6 µM | > 100 µM | 25.3 µM
